{"source": "patent US6897288B1", "about": "“Mage-A12 antigenic peptides and uses thereof” (Ludwig Institute for Cancer Research, priority 1999, dated 2005)", "system": "autologous cell line LB-831-EBV pulsed with MAGE-A12 peptides, lysis by CTL 501D/19 (HLA-Cw*07 restricted)", "test": "Chromium release cytotoxicity assay with peptide-pulsed cells", "format": "cell-based, human", "conditions": "effector to target ratio of 10, chromium release after 4 hours; for sensitization of peptide-pulsed LB-831-EBV cells to lysis by CTL 501D/19 (recognition by CTL): chromium-labeled cells pulsed 30 min with peptide", "description": "The lytic activity of CTLs was tested in a chromium release assay as described previously (Boon et al., J. Exp. Med. 152:1184-1193, 1980). Briefly, 1,000 chromium-labeled cells in 100 μl were incubated in 96-well microplates with an equal volume of CTL at different effector to target ratios. Chromium release was measured after 4 h of incubation. For the peptide assay, labeled LB831-EBV cells were incubated for 30 min at 37° C. with various concentrations of peptides. CTL were then added and chromium release was measured as described above.\nCells transfected with fragments of 540 bp or more were capable of stimulating CTL 501D/19, whereas those transfected with shorter fragments were not. […] In the amino-acid sequence corresponding to nucleotides 525-540, two overlapping nonapeptides, EVVRIGHLY (codons 168-176 of MAGE-A12; SEQ ID NO:3) and VRIGHLYIL (codons 170-178 of MAGE-A12; SEQ ID NO:4) were found which conformed to the HLA-Cw7 peptide binding motif, i.e. tyrosine or leucine at the C terminus (Rammensee et al., Immunogenetics. 41:178, 1995). Decapeptide […] (SEQ ID NO:5), nonapeptide VRIGHLYIL (SEQ ID NO:4) and octapeptide RIGHLYIL (SEQ ID NO:6) sensitized the autologous lymphoblastoid cell line LB-83]-EBV to lysis by CTL 501D/19 (FIG. 4). Autologous cell line LB-831-EBV was loaded with MAGE-A12 peptides VRIGHLYIL (SEQ ID NO:4), VVRIGHLYIL (SEQ ID NO:5), or RIGHLYIL (SEQ ID NO:6), and contacted with CTL 501D/19. Chromium-labeled cells were pulsed for 30 min with the indicated concentrations of peptides (VRIGHLYIL (SEQ ID NO:4) or […] (SEQ ID NO:6)). CTL 501D/19 was added at an effector to target ratio of 10. Chromium release was measured after 4 hours."}
{"sequence": "RIGHLYIL [SEQ ID NO:6]", "values": [{"measurement": "sensitization of peptide-pulsed LB-831-EBV cells to lysis by CTL 501D/19 (recognition by CTL)", "value": "sensitized"}]}
{"sequence": "VVRIGHLYIL [SEQ ID NO:5]", "values": [{"measurement": "sensitization of peptide-pulsed LB-831-EBV cells to lysis by CTL 501D/19 (recognition by CTL)", "value": "sensitized"}]}
{"sequence": "VRIGHLYIL [SEQ ID NO:4]", "values": [{"measurement": "EC50", "setting": "LB-831-EBV cells pulsed 30 min, read-out: peptide concentration giving half-maximal lysis by CTL 501D/19", "value": 0.1, "unit": "nM"}, {"measurement": "sensitization of peptide-pulsed LB-831-EBV cells to lysis by CTL 501D/19 (recognition by CTL)", "value": "sensitized"}]}
{"sequence": "EVVRIGHLY (listed as Homo sapiens) [SEQ ID NO:3, nonapeptide, codons 168-176 of MAGE-A12]", "values": [{"measurement": "sensitization of peptide-pulsed LB-831-EBV cells to lysis by CTL 501D/19 (recognition by CTL)", "value": "not recognized"}]}
